Data reported in patent US12344603B2 (Genentech, Inc., priority 2020, dated 2025).
Counter-ions that a name gives are not always drawn.

target: IRE1α (Homo sapiens (Human), UniProt O75460, D688N); experiment: IRE1α TR-FRET competition binding assay (IRE1α HTRF); details: TR-FRET competition binding to kinase domain of IRE1α
Procedure, shortened: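 Kinase domain (0.25 nM) pre-bound to 2 nM Eu anti-His antibody for 1 h at 4° C in HEPES pH 7.5/MgCl2/Brij 35/DTT/gamma globulin buffer, then mixed with compounds and 2 nM Alexa 647 ATP-competitive probe. 1 h at room temperature; probe displacement read as TR-FRET (Ex 347 nm, Em 665/615 nm).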

IRE1α, sequence (O75460 547-977 D688N): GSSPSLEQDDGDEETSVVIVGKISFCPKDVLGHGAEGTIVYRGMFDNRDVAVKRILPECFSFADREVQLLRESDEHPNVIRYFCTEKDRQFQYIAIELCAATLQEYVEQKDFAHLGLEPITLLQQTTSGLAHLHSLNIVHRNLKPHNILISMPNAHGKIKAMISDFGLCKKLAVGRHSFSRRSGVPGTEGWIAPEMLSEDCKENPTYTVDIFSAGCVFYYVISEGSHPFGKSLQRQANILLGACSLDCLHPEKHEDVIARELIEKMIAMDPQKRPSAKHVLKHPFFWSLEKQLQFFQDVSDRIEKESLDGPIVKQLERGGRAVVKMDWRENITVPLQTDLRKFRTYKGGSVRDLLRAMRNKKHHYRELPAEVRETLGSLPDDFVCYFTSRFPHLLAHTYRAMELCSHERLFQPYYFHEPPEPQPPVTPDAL

Which IC50 does the source give for `CC(C)n1c(=O)c(-c2cc(F)c(NS(=O)(=O)CC(F)(F)CC3CC3)c(F)c2)nc2cnc(N[C@H]3CC[C@H](N(C)C)CC3)nc21` [Example 248, 3-Cyclopropyl-N-[4-[2-[[4-(dimethylamino)cyclohexyl]amino]-8-isopropyl-7-oxo-pteridin-6-yl]-2,6-difluoro-phenyl]-2,2-difluoro-propane-1-sulfonamide] here?
Its IC50 is 0.2 nM.

Which IC50 does the source give for `CC(C)n1c(=O)c(-c2ccc(NS(=O)(=O)c3ccccc3Cl)nc2)cc2cnc(N[C@H]3CC[C@H](N(C)CCF)CC3)nc21` [Compound 146, 2-Chloro-N-(5-(2-(((1r,4r)-4-((2-fluoroethyl)(methyl)amino)cyclohexyl)amino)-8-isopropyl-7-oxo-7,8-dihydropyrido[2,3-d]pyrimidin-6-yl)pyridin-2-yl)benzenesulfonamide hydrochloride] here?
Its IC50 is 0.16 nM.

With `CC(C)n1c(=O)c(-c2ccc(NS(=O)(=O)c3ccccc3C#N)c(F)c2)nc2cnc(N[C@H]3CC[C@H](N(C)C)CC3)nc21` [Compound 190, 2-Cyano-N-(4-(2-(((1r,4r)-4-(dimethylamino)cyclohexyl)amino)-8-isopropyl-7-oxo-7,8-dihydropteridin-6-yl)-2-fluorophenyl)benzenesulfonamide] as the molecule, how does the IC50 read?
The IC50 was 0.18 nM.

For `CC(C)n1c(=O)c(-c2ccc(NS(=O)(=O)c3ccccc3C#N)nc2)cc2cnc(N[C@H]3CC[C@H](N(C)CCF)CC3)nc21` [Compound 148, 2-Cyano-N-(5-(2-(((1r,4r)-4-((2-fluoroethyl)(methyl)amino)cyclohexyl)amino)-8-isopropyl-7-oxo-7,8-dihydropyrido[2,3-d]pyrimidin-6-yl)pyridin-2-yl)benzenesulfonamide], which IC50 is on record?
Its IC50 is 0.23 nM.

With `Cc1nc(NS(=O)(=O)c2ccc(F)cc2)ccc1-c1cc2cnc(N[C@H]3CC[C@H](N(C)C)CC3)nc2n(C(C)C)c1=O` [Compound 132, N-(5-(2-(((1r,4r)-4-(Dimethylamino)cyclohexyl)amino)-8-isopropyl-7-oxo-7,8-dihydropyrido[2,3-d]pyrimidin-6-yl)-6-methylpyridin-2-yl)-4-fluorobenzenesulfonamide] as the molecule, how does the IC50 read?
Its IC50 is 0.52 nM.

`CC(C)n1c(=O)c(-c2cc(F)c(NS(=O)(=O)CC3CCC3(F)F)c(F)c2)nc2cnc(N[C@H]3CC[C@H](N(C)C)CC3)nc21` (mixture of isomers) [Example 250, 1-(2,2-Difluorocyclobutyl)-N-[4-[2-[[4-(dimethylamino)cyclohexyl]amino]-8-isopropyl-7-oxo-pteridin-6-yl]-2,6-difluoro-phenyl]methanesulfonamide] was tested. Which IC50 did it give?
The IC50 was 0.2 nM.

For `CC(C)n1c(=O)c(-c2ccc(NS(=O)(=O)N3CCCCC3)c(F)c2)nc2cnc(N[C@@H]3CNC[C@@H](F)C3)nc21` [Compound 162, N-(2-Fluoro-4-(2-(((3S,5S)-5-fluoropiperidin-3-yl)amino)-8-isopropyl-7-oxo-7,8-dihydropteridin-6-yl)phenyl)piperidine-1-sulfonamide], which IC50 is on record?
The IC50 was 1.3 nM.

Which IC50 does the source give for `CC(C)n1c(=O)c(-c2cc(F)c(NS(=O)(=O)CCC(F)(F)F)c(F)c2)nc2cnc(N[C@@H]3CNC[C@@H](F)C3)nc21` [Compound 46, N-(2,6-Difluoro-4-(2-(((3S,5S)-5-fluoropiperidin-3-yl)amino)-8-isopropyl-7-oxo-7,8-dihydropteridin-6-yl)phenyl)-3,3,3-trifluoropropane-1-sulfonamide] here?
Its IC50 is 0.47 nM.

Which IC50 does the source give for `CC(C)n1c(=O)c(-c2ccc(NS(=O)(=O)CC3CCCCC3(F)F)c(F)c2)nc2cnc(N[C@H]3CC[C@H](N(C)C)CC3)nc21` (mixture of isomers) [Example 272, 1-(2,2-Difluorocyclohexyl)-N-[4-[2-[[4-(dimethylamino)cyclohexyl]amino]-8-isopropyl-7-oxo-pteridin-6-yl]-2-fluoro-phenyl]methanesulfonamide] here?
The IC50 was 0.2 nM.

With `CC(C)n1c(=O)c(-c2cc(F)c(NS(=O)(=O)CCC(F)(F)F)c(F)c2)nc2cnc(N[C@H]3CC[C@H](N(C)C)CC3)nc21` [Example 239, N-[4-[2-[[4-(Dimethylamino)cyclohexyl]amino]-8-isopropyl-7-oxo-pteridin-6-yl]-2,6-difluoro-phenyl]-3,3,3-trifluoro-propane-1-sulfonamide] as the molecule, how does the IC50 read?
Its IC50 is 0.2 nM.

With `CC(C)n1c(=O)c(-c2ccc(NS(=O)(=O)Cc3ccc(F)cc3)c(F)c2)cc2cnc(N[C@@H]3CNC[C@@H](F)C3)nc21` [Compound 112, N-(2-Fluoro-4-(2-(((3S,5S)-5-fluoropiperidin-3-yl)amino)-8-isopropyl-7-oxo-7,8-dihydropyrido[2,3-d]pyrimidin-6-yl)phenyl)-1-(4-fluorophenyl)methanesulfonamide hydrochloride] as the molecule, how does the IC50 read?
Its IC50 is 0.13 nM.

How did the IC50 turn out when `CC(C)n1c(=O)c(-c2ccc(NS(=O)(=O)CCC(F)(F)F)c(F)c2)cc2cnc(NC3CCC4(CC3)CN(C)C4)nc21` [Example 221, 3,3,3-Trifluoro-N-(2-fluoro-4-(8-isopropyl-2-((2-methyl-2-azaspiro[3.5]nonan-7-yl)amino)-7-oxo-7,8-dihydropyrido[2,3-d]pyrimidin-6-yl)phenyl)propane-1-sulfonamide] was run?
The IC50 was 0.2 nM.

Which IC50 does the source give for `CC(C)n1c(=O)c(-c2ccc(NS(=O)(=O)CC3CCC4C(C3)C4(F)F)c(F)c2)nc2cnc(N[C@H]3CC[C@H](N(C)C)CC3)nc21` (mixture of isomers) [Example 273, 1-(7,7-Difluoronorcaran-3-yl)-N-[4-[2-[[(1RS)-4-(dimethylamino)cyclohexyl]amino]-8-isopropyl-7-oxo-pteridin-6-yl]-2-fluoro-phenyl]methanesulfonamide] here?
Its IC50 is 0.2 nM.

With `CC(C)n1c(=O)c(-c2ccc(NS(=O)(=O)CC3Cc4ccccc4C3)c(F)c2)nc2cnc(N[C@H]3CC[C@H](N(C)C)CC3)nc21` [Example 268, N-[4-[2-[[4-(Dimethylamino)cyclohexyl]amino]-8-isopropyl-7-oxo-pteridin-6-yl]-2-fluoro-phenyl]-1-indan-2-yl-methanesulfonamide] as the molecule, how does the IC50 read?
Its IC50 is 0.1 nM.

With `CC(C)n1c(=O)c(-c2cc(F)c(NS(=O)(=O)c3ccccc3Cl)c(F)c2F)cc2cnc(N[C@@H]3CNC[C@@H](F)C3)nc21` [Compound 61, 2-Chloro-N-(2,3,6-trifluoro-4-(2-(((3S,5S)-5-fluoropiperidin-3-yl)amino)-8-isopropyl-7-oxo-7,8-dihydropyrido[2,3-d]pyrimidin-6-yl)phenyl)benzenesulfonamide hydrochloride] as the molecule, how does the IC50 read?
The IC50 was 0.31 nM.

For `CC(C)n1c(=O)c(-c2ccc(NS(=O)(=O)Cc3ccccc3)c(F)c2)nc2cnc(N[C@H]3CC[C@H](N(C)C)[C@@H](F)C3)nc21` (stereo in doubt) [Compound 192A, N-(4-(2-((4-(Dimethylamino)-3-fluorocyclohexyl)amino)-8-isopropyl-7-oxo-7,8-dihydropteridin-6-yl)-2-fluorophenyl)-1-phenylmethanesulfonamide], which IC50 is on record?
Its IC50 is 0.11 nM.

same assay, conditions: TR-FRET competition binding to kinase domain of IRE1α; hydrochloride

How did the IC50 turn out when `CC(C)n1c(=O)c(-c2ccc(NS(=O)(=O)CCC(F)(F)F)c(F)c2)cc2cnc(NC3CCC(N(C)C)C(F)C3)nc21` (racemic) [Compound 154, N-(4-(2-((4-(Dimethylamino)-3-fluorocyclohexyl)amino)-8-isopropyl-7-oxo-7,8-dihydropyrido[2,3-d]pyrimidin-6-yl)-2-fluorophenyl)-3,3,3-trifluoropropane-1-sulfonamide hydrochloride] was run?
Its IC50 is 0.13 nM.
